Assay results taken from US6683070B2, “Aqueous suspension with good redispersibility” (Senju Pharmaceutical Co., Ltd., priority 1997, dated 2004).

How the values were obtained:
[1] = Redispersibility test: redispersion time and visual condition after standing at 25° C. for 4 days; type: physicochemical
Method: (§1) Solutions containing a suspending agent in concentrations ranging from 0.000001 to 0.5 w/v % were first prepared. A test drug was added to the solutions to prepare aqueous suspensions. The surface tension of each aqueous suspension thus prepared was measured with the Du Noüy tension meter K122 (Krüss). The suspensions were then filled into 5 ml colorless polypropylene bottles and allowed to stand at 25° C. for 4 days. Each bottle was caused to spin (60 rpm) on the variable mix rotor VMR-5 (60 rpm, manufactured by Iuchi) and the time required for redispersion was measured. In addition, the condition of the redispersed particles was visually examined. As the suspending agent, hydroxypropylmethyl cellulose [Metolose 60SH (TC-5E); manufactured by Shin-Etsu Chemical Co., Ltd.; hereinafter abbreviated as HPMC], methylcellulose (Metolose SM-25; manufactured by Shin-Etsu Chemical Co., Ltd.; abbreviated as MC), or polyvinylpyrrolidone (K30; manufactured by BASF; abbreviated as PVP) was used. As the test drug, fluorometholone 0.05 w/v % or 0.1 w/v % or indomethacin 0.2 w/v % or 1.0 w/v % was used.

[2] = Surface tension of aqueous suspension (Du Noüy tension meter K122); type: physicochemical
Method: as §1

[3] = indomethacin 0.2 w/v % suspension, HPMC below 0.0001 w/v %
[4] = indomethacin 1.0 w/v % suspension, HPMC less than 0.0005 w/v %
[5] = indomethacin 0.2 w/v % suspension
[6] = indomethacin 1.0 w/v % suspension
[7] = fluorometholone 0.05 w/v % suspension, 0.0001 to 0.002 w/v % HPMC
[8] = fluorometholone 0.1 w/v % suspension, 0.000005 to 0.0001 w/v % HPMC
[9] = fluorometholone 0.1 w/v % suspension, 0.0001 to 0.01 w/v % HPMC
[10] = fluorometholone 0.1 w/v % suspension, 0.0003 to 0.002 w/v % PVP
[11] = fluorometholone 0.1 w/v % suspension, MC 0.0001 w/v % or less
[12] = fluorometholone 0.05 w/v % suspension
[13] = fluorometholone 0.1 w/v % suspension
[14] = fluorometholone 0.1 w/v % suspension, MC
[15] = fluorometholone 0.1 w/v % suspension, PVP

Question: With `COc1ccc2c(c1)c(CC(=O)O)c(C)n2C(=O)c1ccc(Cl)cc1` [indomethacin] as the compound, how does the “condition of the redispersed particles” value ([1]; indomethacin 0.2 w/v % suspension, 0.0001 to 0.01 w/v % HPMC) read?
Answer: The value was “the drug being rapidly redispersed without aggregation”.

Question: What about the “condition of the redispersed particles” value [1, 3] of the same compound?
Answer: Its value is “the dispersed particles aggregated and floated, failing to give a uniform suspension”.

Question: What about the redispersion time [1, 3] of the same compound?
Answer: Its redispersion time is no more than 7 s.

Question: And the redispersion time ([1]; indomethacin 0.2 w/v % suspension, HPMC over 0.01 w/v %)?
Answer: The redispersion time was “exceeding 12 seconds”.

Question: What about the “condition of the redispersed particles” value ([1]; indomethacin 1.0 w/v % suspension, 0.0005 to 0.005 w/v % HPMC) of the same compound?
Answer: Its value is “the drug particles being rapidly redispersed without aggregation”.

Question: And the redispersion time ([1]; indomethacin 1.0 w/v % suspension, HPMC exceeded 0.005 w/v %)?
Answer: Its redispersion time is “more than 20 seconds”.

Question: And the “condition of the redispersed particles” value [1, 4]?
Answer: Its value is “the dispersed particles aggregated and floated, failing to give a uniform suspension”.

Question: And the redispersion time [1, 4]?
Answer: The redispersion time was “not more than 7 seconds”.

Question: What about the surface tension ([2]; indomethacin 0.2 w/v % suspension, 0.01 w/v % HPMC) of the same compound?
Answer: Its surface tension is 48 mN/m.

Question: What about the “HPMC concentration at which the decrease in surface tension almost ceased” value (from here on “HPMC concentration at which the decrease”) [2, 5] of the same compound?
Answer: The value was 0.01 w/v %.

Question: And the “HPMC concentration at which the surface tension began to decline” value (“HPMC concentration … to decline” for short) [2, 5]?
Answer: Its value is 0.0001 w/v %.

Question: What about the surface tension ([2]; indomethacin 0.2 w/v % suspension, HPMC less than 0.0001 w/v %) of the same compound?
Answer: The surface tension was roughly 72 mN/m.

Question: And the surface tension ([2]; indomethacin 1.0 w/v % suspension, 0.005 w/v % HPMC)?
Answer: The surface tension was 49.7 mN/m.

Question: And the “HPMC concentration at which the decrease” value [2, 6]?
Answer: The value was 0.005 w/v %.

Question: What about the “HPMC concentration … to decline” value [2, 6] of the same compound?
Answer: The value was 0.0005 w/v %.

Question: And the surface tension ([2]; indomethacin 1.0 w/v % suspension, HPMC below 0.0005 w/v %)?
Answer: The surface tension was roughly 72.73 mN/m.

Question: Which “condition of the dispersion” value [1, 7] does the source give for `CC(=O)[C@@]1(O)CC[C@H]2[C@@H]3C[C@H](C)C4=CC(=O)C=C[C@]4(C)[C@@]3(F)[C@@H](O)C[C@@]21C` [fluorometholone] here?
Answer: The value was “satisfactory”.

Question: And the “time required for redispersion” value [1, 7]?
Answer: The value was “about 6 seconds”.

Question: What about the “condition of the redispersed particles” value [1, 8] of the same compound?
Answer: Its value is “the dispersed particles aggregated and floated, failing to give a uniform suspension”.

Question: What about the “time required for redispersion” value [1, 8] of the same compound?
Answer: Its value is 2 s.

Question: What about the “condition of the redispersed particles” value [1, 9] of the same compound?
Answer: The value was “a uniform suspension was obtained without aggregation of suspended particles”.

Question: And the redispersion time [1, 9]?
Answer: Its redispersion time is “less than 4 seconds”.

Question: And the “condition of the redispersed particles” value ([1]; fluorometholone 0.1 w/v % suspension, 0.0001 to 0.01 w/v % MC)?
Answer: Its value is “redispersion taking place rapidly without aggregation of dispersed particles”.

Question: And the “condition of the dispersion” value [1, 10]?
Answer: Its value is “satisfactory”.

Question: And the “time necessary for redispersion” value [1, 10]?
Answer: Its value is “about 6 seconds”.

Question: And the redispersion time ([1]; fluorometholone 0.1 w/v % suspension, HPMC over 0.01 w/v %)?
Answer: Its redispersion time is “exceeded 5 seconds”.

Question: What about the “condition of the redispersed particles” value [1, 11] of the same compound?
Answer: The value was “the dispersed particles aggregated and floated, failing to give a uniform suspension”.

Question: What about the redispersion time [1, 11] of the same compound?
Answer: Its redispersion time is no more than 2 s.

Question: What about the redispersion time ([1]; fluorometholone 0.1 w/v % suspension, MC over 0.01 w/v %) of the same compound?
Answer: Its redispersion time is roughly 20 s.

Question: What about the redispersion time ([1]; fluorometholone 0.1 w/v % suspension, PVP in excess of 0.002 w/v %) of the same compound?
Answer: Its redispersion time is no less than 18 s.

Question: What about the surface tension ([2]; fluorometholone 0.05 w/v % suspension, 0.0001 w/v % HPMC) of the same compound?
Answer: Its surface tension is 65.1 mN/m.

Question: And the surface tension ([2]; fluorometholone 0.05 w/v % suspension, 0.001 w/v % PVP)?
Answer: The surface tension was 69.5 mN/m.

Question: What about the surface tension ([2]; fluorometholone 0.05 w/v % suspension, 0.002 w/v % HPMC) of the same compound?
Answer: The surface tension was 50.5 mN/m.

Question: What about the “HPMC concentration at which the decrease” value [2, 12] of the same compound?
Answer: The value was 0.002 w/v %.

Question: And the “HPMC concentration … to decline” value [2, 12]?
Answer: The value was 0.0001 w/v %.

Question: What about the “PVP concentration at which the decrease in surface tension almost ceased” value ([2]; fluorometholone 0.05 w/v % suspension, PVP) of the same compound?
Answer: The value was 0.001 w/v %.

Question: And the surface tension ([2]; fluorometholone 0.05 w/v % suspension, PVP at the concentration where the decline began (printed 0.0902 w/v % PVC))?
Answer: The surface tension was 72.3 mN/m.

Question: And the surface tension ([2]; fluorometholone 0.1 w/v % suspension, 0.002 w/v % PVP)?
Answer: Its surface tension is 69.5 mN/m.

Question: What about the surface tension ([2]; fluorometholone 0.1 w/v % suspension, 0.01 w/v % MC) of the same compound?
Answer: The surface tension was 54.5 mN/m.

Question: What about the “HPMC concentration at which the decrease” value [2, 13] of the same compound?
Answer: The value was 0.01 w/v.

Question: And the “HPMC concentration … to decline” value [2, 13]?
Answer: Its value is 0.0001 w/v %.

Question: What about the “MC concentration at which the decrease in surface tension almost ceased” value [2, 14] of the same compound?
Answer: Its value is 0.01 w/v %.

Question: What about the “MC concentration at which the surface tension began to decline” value [2, 14] of the same compound?
Answer: Its value is 0.0001 w/v %.

Question: What about the surface tension ([2]; fluorometholone 0.1 w/v % suspension, MC 0.0001 w/v % and below) of the same compound?
Answer: The surface tension was roughly 72.5 mN/m.

Question: And the “PVP concentration at which the decrease in surface tension almost ceased” value [2, 15]?
Answer: Its value is 0.002 w/v %.

Question: And the “PVP concentration at which the surface tension began to decline” value [2, 15]?
Answer: The value was 0.0003 w/v %.

Question: What about the surface tension ([2]; fluorometholone 0.1 w/v % suspension, PVP less than 0.0003 w/v %) of the same compound?
Answer: Its surface tension is roughly 72.5 mN/m.
